Assay results taken from PubChem BioAssay AID248 (DTP/NCI, 2004).
Where “and” joins values, the source holds several entries; their conditions need not be identical. Equal entries are not always repeated. Inconclusive results and toxic doses are left out. Cut-off read from the data, not from the text of the source: active = T/C of 150% or more; inactive = T/C below 125%.

Tested on: L1210 leukemia ip in BDF1 mice, survival T/C
Assay: NCI In Vivo Anticancer Drug Screen. Data for tumor model L1210 Leukemia (intraperitoneal) in B6D2F1 (BDF1) mice
Conditions: higher = longer survival
Outline: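 Value reflects the ratio of survival in compound-treated mice to survival in vehicle-treated controls, with both groups carrying the same transplanted tumor.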

[1] = endpoint: mean survival time, dose: 100.0 mg/kg/injection, schedule: Q01DX009 (ip), vehicle: saline
[2] = endpoint: mean survival time, dose: 200.0 mg/kg/injection, schedule: Q01DX009 (ip), vehicle: saline
[3] = endpoint: mean survival time, dose: 400.0 mg/kg/injection, schedule: Q01DX009 (ip), vehicle: saline
[4] = endpoint: mean survival time, dose: 50.0 mg/kg/injection, schedule: Q01DX009 (ip), vehicle: saline with Tween-80
[5] = endpoint: mean survival time, dose: 100.0 mg/kg/injection, schedule: Q01DX009 (ip), vehicle: saline with Tween-80
[6] = endpoint: mean survival time, dose: 200.0 mg/kg/injection, schedule: Q01DX009 (ip), vehicle: saline with Tween-80
[7] = endpoint: mean survival time, dose: 100.0 mg/kg/injection, schedule: Q04DX003 (ip), vehicle: saline with Tween-80
[8] = endpoint: mean survival time, dose: 200.0 mg/kg/injection, schedule: Q04DX003 (ip), vehicle: saline with Tween-80
[9] = endpoint: mean survival time, dose: 400.0 mg/kg/injection, schedule: Q04DX003 (ip), vehicle: saline with Tween-80
[10] = endpoint: mean survival time, dose: 25.0 mg/kg/injection, schedule: Q04DX003 (ip), vehicle: saline
[11] = endpoint: mean survival time, dose: 50.0 mg/kg/injection, schedule: Q01DX009 (ip), vehicle: saline
[12] = endpoint: mean survival time, dose: 50.0 mg/kg/injection, schedule: Q04DX003 (ip), vehicle: saline
[13] = endpoint: mean survival time, dose: 100.0 mg/kg/injection, schedule: Q04DX003 (ip), vehicle: saline
[14] = endpoint: mean survival time, dose: 100.0 mg/kg/injection, schedule: Q01DX001 (ip), vehicle: saline
[15] = endpoint: mean survival time, dose: 200.0 mg/kg/injection, schedule: Q01DX001 (ip), vehicle: saline
[16] = endpoint: mean survival time, dose: 75.0 mg/kg/injection, schedule: Q01DX001 (ip), vehicle: saline
[17] = endpoint: mean survival time, dose: 150.0 mg/kg/injection, schedule: Q01DX001 (ip), vehicle: saline

Measured: T/C

CC(=O)c1ccccc1-n1c(C)ccc1C
inactive: [1] 95 % of control | endpoint: mean survival time, dose: 100.0 mg/kg/injection, schedule: Q04DX003 (ip), vehicle: saline + alcohol 100 % of control | [2] 98 % of control | endpoint: mean survival time, dose: 200.0 mg/kg/injection, schedule: Q04DX003 (ip), vehicle: saline + alcohol 100 % of control | [3] 98 % of control | endpoint: mean survival time, dose: 400.0 mg/kg/injection, schedule: Q04DX003 (ip), vehicle: saline + alcohol 108 % of control

COc1ccc(C)cc1NC(=O)OCCOc1cc(C)c(Cl)c(C)c1
inactive: [4] 90 % of control | [5] 87 % of control | [6] 87 % of control

COc1cc([N+](=O)[O-])ccc1N
inactive: endpoint: mean survival time, dose: 100.0 mg/kg/injection, schedule: Q01DX009 (ip), vehicle: saline sonified 116 % of control | [7] 105 % of control | endpoint: mean survival time, dose: 200.0 mg/kg/injection, schedule: Q01DX009 (ip), vehicle: saline sonified 95 % of control | [8] 105 % of control | endpoint: mean survival time, dose: 400.0 mg/kg/injection, schedule: Q01DX009 (ip), vehicle: saline sonified 104 % of control | [9] 115 % of control

CCOC(=O)C(=CNc1ccc(OCCCOc2ccccc2)cc1)C(=O)OCC
inactive: endpoint: mean survival time, dose: 100.0 mg/kg/injection, schedule: Q01DX001 (ip), vehicle: gum acacia 98 % of control | endpoint: mean survival time, dose: 200.0 mg/kg/injection, schedule: Q01DX001 (ip), vehicle: gum acacia 90 % of control | endpoint: mean survival time, dose: 400.0 mg/kg/injection, schedule: Q01DX001 (ip), vehicle: gum acacia 102 % of control

C[N+](C)(C)C1CC1
inactive: endpoint: mean survival time, dose: 12.5 mg/kg/injection, schedule: Q01DX009 (ip), vehicle: saline 94 % of control | endpoint: mean survival time, dose: 25.0 mg/kg/injection, schedule: Q01DX009 (ip), vehicle: saline 98 % of control | [10] 93 % of control | [11] 96 % of control and 102 % of control | [12] 103 % of control

Nc1nc(N)c2c(n1)CCCC2
inactive: endpoint: mean survival time, dose: 12.5 mg/kg/injection, schedule: Q04DX003 (ip), vehicle: saline with Tween-80 95 % of control | endpoint: mean survival time, dose: 25.0 mg/kg/injection, schedule: Q04DX003 (ip), vehicle: saline with Tween-80 93 % of control | endpoint: mean survival time, dose: 50.0 mg/kg/injection, schedule: Q04DX003 (ip), vehicle: saline with Tween-80 91 % of control

CCOC(=O)C1C(=O)C(C(=O)Nc2ccccc2)C(=O)C(C(=O)OCC)C1c1ccc(OC)c(OC)c1OC (stereo not drawn)
inactive: endpoint: mean survival time, dose: 50.0 mg/kg/injection, schedule: Q01DX001 (ip), vehicle: saline with Tween-80 96 % of control | endpoint: mean survival time, dose: 100.0 mg/kg/injection, schedule: Q01DX001 (ip), vehicle: saline with Tween-80 100 % of control | endpoint: mean survival time, dose: 200.0 mg/kg/injection, schedule: Q01DX001 (ip), vehicle: saline with Tween-80 94 % of control

CC(=O)NC(CCc1ccc(Cl)c(Cl)c1)c1cccc(O)c(=O)c1 (stereo not drawn)
inactive: endpoint: median survival time, dose: 50.0 mg/kg/injection, schedule: Q01DX009 (ip), vehicle: Klucel (hydroxypropylcellulose) (HPC) 118 % of control | endpoint: median survival time, dose: 100.0 mg/kg/injection, schedule: Q01DX009 (ip), vehicle: Klucel (hydroxypropylcellulose) (HPC) 118 % of control

CCC(NC(=O)c1cnc2ccccc2n1)C(=O)O (stereo not drawn)
inactive: [13] 101 % of control | endpoint: mean survival time, dose: 200.0 mg/kg/injection, schedule: Q04DX003 (ip), vehicle: saline 92 % of control | endpoint: mean survival time, dose: 400.0 mg/kg/injection, schedule: Q04DX003 (ip), vehicle: saline 90 % of control

CCOC(=O)C(CCCOC(=O)c1cc([N+](=O)[O-])cc([N+](=O)[O-])c1)C(=O)OCC
inactive: [14] 94 % of control | [1] 101 % of control | [15] 98 % of control | [2] 101 % of control | endpoint: mean survival time, dose: 400.0 mg/kg/injection, schedule: Q01DX001 (ip), vehicle: saline 91 % of control | [3] 95 % of control

O=C1C=C(C23CC4CC(CC(C4)C2)C3)N2CCCc3cccc(c32)N1
inactive: endpoint: mean survival time, dose: 100.0 mg/kg/injection, schedule: Q04DX002 (ip), vehicle: Klucel (hydroxypropylcellulose) (HPC) 97 % of control | endpoint: mean survival time, dose: 200.0 mg/kg/injection, schedule: Q04DX002 (ip), vehicle: Klucel (hydroxypropylcellulose) (HPC) 105 % of control | endpoint: mean survival time, dose: 400.0 mg/kg/injection, schedule: Q04DX002 (ip), vehicle: Klucel (hydroxypropylcellulose) (HPC) 97 % of control

C[n+]1cccc(C(=O)NCCc2c[nH]c3ccccc23)c1
inactive: [16] 96 % of control | [17] 104 % of control

NC(=O)c1[nH]cnc1[N+]1=NN(c2ccccc2)CC1
inactive: [11] 102 % of control | [1] 94 % of control | [2] 102 % of control

N#CSCC(CCCCCCCCC(=O)O)SC#N (stereo not drawn)
inactive: endpoint: mean survival time, dose: 12.5 mg/kg/injection, schedule: Q04DX002 (ip), vehicle: saline with Tween-80 91 % of control | endpoint: mean survival time, dose: 25.0 mg/kg/injection, schedule: Q04DX002 (ip), vehicle: saline with Tween-80 100 % of control

CCOC(=O)/C(C#N)=N\O
inactive: [10] 98 % of control | [11] 111 % of control | [12] 111 % of control | [1] 90 % of control | [13] 104 % of control and 88 % of control

C=C(C)C1(CCC)C(=O)NC(=S)NC1=O
inactive: [16] 107 % of control | [17] 111 % of control | endpoint: mean survival time, dose: 300.0 mg/kg/injection, schedule: Q01DX001 (ip), vehicle: saline 116 % of control

Cc1cc(N(CCO)Cc2ccccc2)nc2ccccc12
inactive: [16] 102 % of control

O=C1CCCN1C[CH2][Sn]([c]1ccccc1)([c]1ccccc1)[c]1ccccc1
inactive: [11] 104 % of control | [1] 96 % of control | [2] 107 % of control

O=C1c2ccccc2-c2cccc3cccc1c23
inactive: endpoint: mean survival time, dose: 50.0 mg/kg/injection, schedule: Q01DX001 (ip), vehicle: saline sonified 94 % of control | endpoint: mean survival time, dose: 100.0 mg/kg/injection, schedule: Q01DX001 (ip), vehicle: saline sonified 95 % of control | endpoint: mean survival time, dose: 100.0 mg/kg/injection, schedule: Q01DX009 (ip), vehicle: gum acacia 105 % of control | endpoint: mean survival time, dose: 200.0 mg/kg/injection, schedule: Q01DX001 (ip), vehicle: saline sonified 97 % of control | endpoint: mean survival time, dose: 200.0 mg/kg/injection, schedule: Q01DX009 (ip), vehicle: gum acacia 96 % of control | endpoint: mean survival time, dose: 400.0 mg/kg/injection, schedule: Q01DX009 (ip), vehicle: gum acacia 102 % of control

O=C1C2CC3C(CC2C(=O)[N]1[Sn]([c]1ccccc1)([c]1ccccc1)[c]1ccccc1)C1(Cl)C(Cl)=C(Cl)C3(Cl)C1(Cl)Cl (stereo not drawn)
inactive: endpoint: mean survival time, dose: 10.0 mg/kg/injection, schedule: Q01DX001 (ip), vehicle: carboxymethylcellulose (CMC) 98 % of control | endpoint: mean survival time, dose: 20.0 mg/kg/injection, schedule: Q01DX001 (ip), vehicle: carboxymethylcellulose (CMC) 95 % of control | endpoint: mean survival time, dose: 40.0 mg/kg/injection, schedule: Q01DX001 (ip), vehicle: carboxymethylcellulose (CMC) 101 % of control | endpoint: mean survival time, dose: 80.0 mg/kg/injection, schedule: Q01DX001 (ip), vehicle: carboxymethylcellulose (CMC) 101 % of control

C=COC(=O)NC(Cc1ccccc1)C(=O)O (stereo not drawn)
inactive: [14] 97 % of control | [15] 89 % of control

Cn1c(=O)c2c(nc(N/N=C/c3cccc4ccccc34)n2C)n(C)c1=O
inactive: endpoint: mean survival time, dose: 44.0 mg/kg/injection, schedule: Q01DX Z (ip), vehicle: saline 90 % of control | endpoint: mean survival time, dose: 66.0 mg/kg/injection, schedule: Q01DX Z (ip), vehicle: saline 94 % of control | endpoint: mean survival time, dose: 100.0 mg/kg/injection, schedule: Q01DX Z (ip), vehicle: saline 92 % of control

C=CCCCCCCCCC(=O)NC(C)COC (stereo not drawn)
inactive: [4] 103 % of control | [5] 103 % of control | [6] 100 % of control

CN1C(=S)c2ccccc2S1(=O)=O
inactive: [7] 106 % of control | [8] 94 % of control | [9] 92 % of control
